Reference: PubChem BioAssay (NCI)
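Results reflect a 48-hour exposure of cells in 96-well plates to compound at five concentrations. The concentration for 50% growth inhibition is given as GI50. The concentration for full growth arrest is given as TGI.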

How the values were obtained:
Assay in all cases: DTP human tumour cell line panel, 48 h
EKVX NSCLC = tested on: EKVX NSCLC
SF-539 CNS = tested on: SF-539 CNS
T-47D breast = tested on: T-47D breast
HCT-15 colon = tested on: HCT-15 colon
SF-295 CNS = tested on: SF-295 CNS
SNB-78 CNS = tested on: SNB-78 CNS
SN12C renal = tested on: SN12C renal
NCI/ADR-RES ovarian = tested on: NCI/ADR-RES ovarian
U251 CNS = tested on: U251 CNS
IGROV1 ovarian = tested on: IGROV1 ovarian
M19-MEL melanoma = tested on: M19-MEL melanoma
SR leukemia = tested on: SR leukemia
HOP-62 NSCLC = tested on: HOP-62 NSCLC
SW-620 colon = tested on: SW-620 colon
HOP-92 NSCLC = tested on: HOP-92 NSCLC
RPMI-8226 leukemia = tested on: RPMI-8226 leukemia
PC-3 prostate = tested on: PC-3 prostate
UACC-257 melanoma = tested on: UACC-257 melanoma
SK-MEL-5 melanoma = tested on: SK-MEL-5 melanoma
NCI-H522 lung = tested on: NCI-H522 lung
DU-145 prostate = tested on: DU-145 prostate
OVCAR-3 ovarian = tested on: OVCAR-3 ovarian
NCI-H226 lung = tested on: NCI-H226 lung
TK-10 renal = tested on: TK-10 renal
OVCAR-4 ovarian = tested on: OVCAR-4 ovarian
HCT-116 colon = tested on: HCT-116 colon
NCI-H460 lung = tested on: NCI-H460 lung
K-562 leukemia = tested on: K-562 leukemia
SK-OV-3 ovarian = tested on: SK-OV-3 ovarian
MDA-MB-435 = tested on: MDA-MB-435
KM12 colon = tested on: KM12 colon
MDA-MB-231 breast = tested on: MDA-MB-231 breast
A498 renal = tested on: A498 renal
CAKI-1 renal = tested on: CAKI-1 renal
LOX IMVI melanoma = tested on: LOX IMVI melanoma
HCC-2998 colon = tested on: HCC-2998 colon
CCRF-CEM leukemia = tested on: CCRF-CEM leukemia
A549 NSCLC = tested on: A549 NSCLC
MCF7 breast = tested on: MCF7 breast
DMS 273 small cell lung = tested on: DMS 273 small cell lung
786-0 renal = tested on: 786-0 renal
M14 melanoma = tested on: M14 melanoma
KM20L2 colon = tested on: KM20L2 colon
ACHN renal = tested on: ACHN renal
DMS 114 small cell lung = tested on: DMS 114 small cell lung
MALME-3M melanoma = tested on: MALME-3M melanoma
HL-60(TB) leukemia = tested on: HL-60(TB) leukemia
COLO 205 colon = tested on: COLO 205 colon
MOLT-4 leukemia = tested on: MOLT-4 leukemia
UO-31 renal = tested on: UO-31 renal
DLD-1 colon = tested on: DLD-1 colon
SK-MEL-28 melanoma = tested on: SK-MEL-28 melanoma
SNB-19 CNS = tested on: SNB-19 CNS
UACC-62 melanoma = tested on: UACC-62 melanoma
SNB-75 CNS = tested on: SNB-75 CNS
SF-268 CNS = tested on: SF-268 CNS
RXF 393 renal = tested on: RXF 393 renal
LXFL 529 NSCLC = tested on: LXFL 529 NSCLC
OVCAR-5 ovarian = tested on: OVCAR-5 ovarian
RXF-631 renal = tested on: RXF-631 renal
HT29 colon = tested on: HT29 colon
NCI-H23 lung = tested on: NCI-H23 lung
OVCAR-8 ovarian = tested on: OVCAR-8 ovarian
SK-MEL-2 melanoma = tested on: SK-MEL-2 melanoma
HS 578T breast = tested on: HS 578T breast

## CC1=C(C(=O)Nc2cc(F)c(F)cc2F)C(c2ccc(N(C)C)cc2)C(C(=O)Nc2cc(F)c(F)cc2F)=C(C)N1
EKVX NSCLC
  TGI: 75.6 µM
SF-539 CNS
  TGI: > 74.1 µM
T-47D breast
  GI50: 3.64 µM
  TGI: 59.2 µM
HCT-15 colon
  GI50: 28.6 µM
  TGI: > 100 µM
SF-295 CNS
  TGI: > 77.2 µM
SNB-78 CNS
  TGI: 65.4 µM
SN12C renal
  TGI: > 100 µM
NCI/ADR-RES ovarian
  GI50: 41.2 µM
  TGI: > 100 µM
U251 CNS
  TGI: > 100 µM
IGROV1 ovarian
  TGI: > 100 µM
M19-MEL melanoma
  TGI: > 100 µM
SR leukemia
  GI50: 18.7 µM
  TGI: > 100 µM
HOP-62 NSCLC
  TGI: > 100 µM
SW-620 colon
  TGI: > 100 µM
HOP-92 NSCLC
  TGI: 15.2 µM
RPMI-8226 leukemia
  TGI: > 68.6 µM
PC-3 prostate
  GI50: 13.7 µM
  TGI: > 100 µM
UACC-257 melanoma
  TGI: > 82.8 µM
SK-MEL-5 melanoma
  TGI: > 74.3 µM
NCI-H522 lung
  TGI: 51 µM
DU-145 prostate
  GI50: 49.4 µM
  TGI: > 100 µM
OVCAR-3 ovarian
  TGI: 49.7 µM
NCI-H226 lung
  TGI: > 92.9 µM
TK-10 renal
  TGI: > 96 µM
OVCAR-4 ovarian
  TGI: > 79.1 µM
HCT-116 colon
  GI50: 30.4 µM
  TGI: > 100 µM
NCI-H460 lung
  TGI: > 100 µM
K-562 leukemia
  TGI: > 100 µM
SK-OV-3 ovarian
  TGI: > 100 µM
MDA-MB-435
  GI50: 41.7 µM
  TGI: > 100 µM
KM12 colon
  TGI: > 75.5 µM
MDA-MB-231 breast
  GI50: 19 µM
  TGI: > 100 µM
A498 renal
  TGI: 80.5 µM
CAKI-1 renal
  TGI: > 67.7 µM
LOX IMVI melanoma
  TGI: > 100 µM
HCC-2998 colon
  TGI: > 83 µM
CCRF-CEM leukemia
  TGI: > 85.9 µM
A549 NSCLC
  TGI: > 60.5 µM
MCF7 breast
  GI50: 16.3 µM
  TGI: > 100 µM
DMS 273 small cell lung
  TGI: > 100 µM
786-0 renal
  TGI: > 100 µM
M14 melanoma
  TGI: > 100 µM
KM20L2 colon
  TGI: > 100 µM
ACHN renal
  TGI: > 87.9 µM
DMS 114 small cell lung
  TGI: 62.8 µM
MALME-3M melanoma
  TGI: > 100 µM
HL-60(TB) leukemia
  TGI: > 61.2 µM
COLO 205 colon
  TGI: > 100 µM
MOLT-4 leukemia
  TGI: > 77.2 µM
UO-31 renal
  TGI: > 84.4 µM
DLD-1 colon
  TGI: > 100 µM
SK-MEL-28 melanoma
  TGI: > 100 µM
SNB-19 CNS
  TGI: > 100 µM
UACC-62 melanoma
  GI50: 12.2 µM
  TGI: 89.8 µM
SNB-75 CNS
  TGI: 48.1 µM
SF-268 CNS
  TGI: > 100 µM
RXF 393 renal
  TGI: 64.3 µM
LXFL 529 NSCLC
  TGI: 63 µM
OVCAR-5 ovarian
  TGI: > 100 µM
RXF-631 renal
  TGI: 86.2 µM
HT29 colon
  TGI: > 91.3 µM
NCI-H23 lung
  TGI: > 85.1 µM
OVCAR-8 ovarian
  TGI: > 100 µM
SK-MEL-2 melanoma
  TGI: > 100 µM
HS 578T breast
  GI50: 28.2 µM
  TGI: > 100 µM
